# Like-named read-outs stand apart in the source and are kept apart here.
# Experiments:
# Assay in all cases: selectivity profiling in a panel of 340 wild-type kinases (Reaction Biology Europe)
# Assay type in all cases: binding
# [1] = biological target: T1, 340 wild-type kinases (Homo sapiens, UniProt P06239)
# T1 construct: purchased Reaction Biology Europe
# [2] = biological target: T2, 340 wild-type kinases (Homo sapiens, UniProt P10398, Y301D/Y302D)
# T2 construct: purchased Reaction Biology Europe
# T2 sequence (P10398 1-606 Y301D/Y302D): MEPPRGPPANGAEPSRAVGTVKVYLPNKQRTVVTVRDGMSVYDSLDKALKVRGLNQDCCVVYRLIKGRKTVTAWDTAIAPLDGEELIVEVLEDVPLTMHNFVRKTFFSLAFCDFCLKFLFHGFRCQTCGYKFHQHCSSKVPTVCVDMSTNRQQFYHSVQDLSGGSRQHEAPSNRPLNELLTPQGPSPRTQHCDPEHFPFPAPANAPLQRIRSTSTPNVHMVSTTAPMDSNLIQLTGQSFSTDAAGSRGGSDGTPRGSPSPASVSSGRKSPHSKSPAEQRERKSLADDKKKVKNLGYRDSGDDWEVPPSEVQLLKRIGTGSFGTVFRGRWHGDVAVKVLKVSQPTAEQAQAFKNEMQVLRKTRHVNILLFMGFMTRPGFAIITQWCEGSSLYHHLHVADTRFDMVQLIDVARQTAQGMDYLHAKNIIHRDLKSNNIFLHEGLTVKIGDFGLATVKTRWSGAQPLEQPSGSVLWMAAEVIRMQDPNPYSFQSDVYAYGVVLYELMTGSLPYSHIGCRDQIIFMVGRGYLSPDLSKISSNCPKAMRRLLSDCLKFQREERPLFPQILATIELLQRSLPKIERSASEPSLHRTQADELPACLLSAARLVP
# [3] = biological target: T3, 340 wild-type kinases (Homo sapiens, UniProt P11309)
# T3 construct: purchased Reaction Biology Europe
# T3 sequence (P11309 whole entry): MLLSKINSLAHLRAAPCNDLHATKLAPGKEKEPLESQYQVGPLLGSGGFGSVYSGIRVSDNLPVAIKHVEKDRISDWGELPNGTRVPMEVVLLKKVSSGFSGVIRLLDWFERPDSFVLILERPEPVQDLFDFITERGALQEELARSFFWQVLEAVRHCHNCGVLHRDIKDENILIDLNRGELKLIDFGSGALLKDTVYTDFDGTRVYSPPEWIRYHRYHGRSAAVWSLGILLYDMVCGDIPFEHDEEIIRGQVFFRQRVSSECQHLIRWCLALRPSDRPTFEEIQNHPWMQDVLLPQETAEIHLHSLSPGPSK
# [4] = biological target: T4, 340 wild-type kinases (Homo sapiens, UniProt P35916)
# T4 construct: purchased Reaction Biology Europe
# T4 sequence (P35916 25-1363): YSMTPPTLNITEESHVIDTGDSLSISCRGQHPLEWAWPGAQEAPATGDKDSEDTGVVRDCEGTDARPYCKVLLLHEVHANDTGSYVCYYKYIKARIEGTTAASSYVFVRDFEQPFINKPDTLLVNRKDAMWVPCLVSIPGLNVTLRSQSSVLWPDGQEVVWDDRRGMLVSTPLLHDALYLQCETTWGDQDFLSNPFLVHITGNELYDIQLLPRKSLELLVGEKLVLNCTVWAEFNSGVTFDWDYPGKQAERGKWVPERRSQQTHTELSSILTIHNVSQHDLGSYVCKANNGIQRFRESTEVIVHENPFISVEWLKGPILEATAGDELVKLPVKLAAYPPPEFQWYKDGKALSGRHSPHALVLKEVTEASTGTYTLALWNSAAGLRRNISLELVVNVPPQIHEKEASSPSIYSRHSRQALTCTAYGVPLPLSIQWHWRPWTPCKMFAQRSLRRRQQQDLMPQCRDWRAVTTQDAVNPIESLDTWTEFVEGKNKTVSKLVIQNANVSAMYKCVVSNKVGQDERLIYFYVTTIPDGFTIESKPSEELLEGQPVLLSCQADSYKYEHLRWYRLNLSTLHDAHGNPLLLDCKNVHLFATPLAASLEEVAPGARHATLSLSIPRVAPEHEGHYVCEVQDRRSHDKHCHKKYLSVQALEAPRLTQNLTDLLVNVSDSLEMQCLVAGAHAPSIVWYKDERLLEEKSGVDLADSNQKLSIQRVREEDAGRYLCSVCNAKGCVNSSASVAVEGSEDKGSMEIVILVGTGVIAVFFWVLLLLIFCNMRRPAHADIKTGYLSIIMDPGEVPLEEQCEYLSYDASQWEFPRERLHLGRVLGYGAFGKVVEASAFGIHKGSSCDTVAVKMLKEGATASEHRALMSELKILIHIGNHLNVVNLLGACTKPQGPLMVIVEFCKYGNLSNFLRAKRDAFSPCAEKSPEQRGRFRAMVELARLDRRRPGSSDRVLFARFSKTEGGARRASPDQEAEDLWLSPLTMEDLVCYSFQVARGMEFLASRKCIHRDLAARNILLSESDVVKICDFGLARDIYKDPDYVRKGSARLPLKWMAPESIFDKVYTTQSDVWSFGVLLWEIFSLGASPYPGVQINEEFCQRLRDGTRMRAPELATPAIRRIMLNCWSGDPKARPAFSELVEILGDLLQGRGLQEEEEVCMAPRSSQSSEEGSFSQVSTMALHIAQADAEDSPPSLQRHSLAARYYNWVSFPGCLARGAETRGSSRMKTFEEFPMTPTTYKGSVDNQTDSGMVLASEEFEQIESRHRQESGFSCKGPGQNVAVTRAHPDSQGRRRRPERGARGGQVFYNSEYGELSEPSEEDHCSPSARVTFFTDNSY
# [5] = biological target: T5, 340 wild-type kinases (Homo sapiens, UniProt P45983)
# T5 construct: purchased Reaction Biology Europe
# T5 sequence (P45983 whole entry): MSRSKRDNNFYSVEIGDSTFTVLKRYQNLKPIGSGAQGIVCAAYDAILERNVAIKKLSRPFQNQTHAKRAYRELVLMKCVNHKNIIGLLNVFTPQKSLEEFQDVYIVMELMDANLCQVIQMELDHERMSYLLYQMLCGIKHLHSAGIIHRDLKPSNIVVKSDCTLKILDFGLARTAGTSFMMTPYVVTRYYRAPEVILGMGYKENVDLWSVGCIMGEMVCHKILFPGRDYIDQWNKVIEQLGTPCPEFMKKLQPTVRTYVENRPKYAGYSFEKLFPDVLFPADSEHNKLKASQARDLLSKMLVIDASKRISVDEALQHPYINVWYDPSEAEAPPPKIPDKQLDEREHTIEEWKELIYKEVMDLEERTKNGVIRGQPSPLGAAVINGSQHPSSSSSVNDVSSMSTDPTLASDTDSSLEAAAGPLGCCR
# [6] = biological target: T6, 340 wild-type kinases (Homo sapiens, UniProt Q13131)
# T6 construct: purchased Reaction Biology Europe
# T6 sequence (Q13131 whole entry): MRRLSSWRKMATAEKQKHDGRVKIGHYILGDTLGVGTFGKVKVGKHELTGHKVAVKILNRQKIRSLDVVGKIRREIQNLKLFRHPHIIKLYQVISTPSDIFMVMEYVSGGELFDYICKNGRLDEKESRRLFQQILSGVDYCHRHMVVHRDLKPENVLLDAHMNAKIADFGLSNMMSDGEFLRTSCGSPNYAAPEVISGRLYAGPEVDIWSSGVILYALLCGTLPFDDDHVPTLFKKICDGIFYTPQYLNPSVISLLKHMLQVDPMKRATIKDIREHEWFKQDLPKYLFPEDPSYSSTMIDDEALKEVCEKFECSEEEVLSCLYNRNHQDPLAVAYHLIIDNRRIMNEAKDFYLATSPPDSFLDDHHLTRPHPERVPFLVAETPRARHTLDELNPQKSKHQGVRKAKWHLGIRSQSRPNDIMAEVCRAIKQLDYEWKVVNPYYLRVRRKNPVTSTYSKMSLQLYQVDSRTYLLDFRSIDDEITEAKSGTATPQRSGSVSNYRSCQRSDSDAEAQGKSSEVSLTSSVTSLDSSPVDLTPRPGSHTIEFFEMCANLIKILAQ
# [7] = biological target: T7, 340 wild-type kinases (Homo sapiens, UniProt Q96PY6)
# T7 construct: purchased Reaction Biology Europe
# T7 sequence (Q96PY6 1-1258): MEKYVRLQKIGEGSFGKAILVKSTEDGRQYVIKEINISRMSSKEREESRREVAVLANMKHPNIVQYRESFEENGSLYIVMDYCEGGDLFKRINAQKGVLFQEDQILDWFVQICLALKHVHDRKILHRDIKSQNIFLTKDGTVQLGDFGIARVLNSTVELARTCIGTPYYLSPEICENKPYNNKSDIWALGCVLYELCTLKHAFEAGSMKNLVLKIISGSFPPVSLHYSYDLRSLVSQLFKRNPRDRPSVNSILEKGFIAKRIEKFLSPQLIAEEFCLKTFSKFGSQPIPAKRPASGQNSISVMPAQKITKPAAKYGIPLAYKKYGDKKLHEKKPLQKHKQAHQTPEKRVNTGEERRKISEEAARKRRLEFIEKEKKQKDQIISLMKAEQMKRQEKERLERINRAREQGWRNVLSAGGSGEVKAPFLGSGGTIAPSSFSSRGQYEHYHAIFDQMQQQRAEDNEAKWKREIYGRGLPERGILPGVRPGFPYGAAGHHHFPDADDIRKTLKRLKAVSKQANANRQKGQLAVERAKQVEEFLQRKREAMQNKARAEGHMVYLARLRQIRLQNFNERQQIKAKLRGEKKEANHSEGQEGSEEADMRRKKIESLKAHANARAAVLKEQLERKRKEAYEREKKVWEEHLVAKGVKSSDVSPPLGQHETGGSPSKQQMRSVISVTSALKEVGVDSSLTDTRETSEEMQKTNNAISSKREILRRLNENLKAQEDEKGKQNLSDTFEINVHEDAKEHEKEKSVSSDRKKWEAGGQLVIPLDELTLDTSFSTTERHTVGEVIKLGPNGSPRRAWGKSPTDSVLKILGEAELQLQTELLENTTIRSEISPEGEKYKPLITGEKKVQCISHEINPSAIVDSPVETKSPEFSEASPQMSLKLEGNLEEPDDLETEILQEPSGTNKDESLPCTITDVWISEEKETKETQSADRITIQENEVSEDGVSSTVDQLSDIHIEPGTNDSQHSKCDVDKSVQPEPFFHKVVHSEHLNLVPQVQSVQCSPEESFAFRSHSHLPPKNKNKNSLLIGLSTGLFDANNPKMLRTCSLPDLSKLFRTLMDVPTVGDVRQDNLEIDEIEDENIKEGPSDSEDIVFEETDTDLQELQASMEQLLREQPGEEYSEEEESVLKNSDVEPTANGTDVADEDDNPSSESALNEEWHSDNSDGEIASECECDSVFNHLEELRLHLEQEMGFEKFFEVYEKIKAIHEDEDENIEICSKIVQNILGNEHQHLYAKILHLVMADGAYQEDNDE
# [8] = biological target: T8, 340 wild-type kinases (Homo sapiens, UniProt Q99558)
# T8 construct: purchased Reaction Biology Europe
# T8 sequence (Q99558 whole entry): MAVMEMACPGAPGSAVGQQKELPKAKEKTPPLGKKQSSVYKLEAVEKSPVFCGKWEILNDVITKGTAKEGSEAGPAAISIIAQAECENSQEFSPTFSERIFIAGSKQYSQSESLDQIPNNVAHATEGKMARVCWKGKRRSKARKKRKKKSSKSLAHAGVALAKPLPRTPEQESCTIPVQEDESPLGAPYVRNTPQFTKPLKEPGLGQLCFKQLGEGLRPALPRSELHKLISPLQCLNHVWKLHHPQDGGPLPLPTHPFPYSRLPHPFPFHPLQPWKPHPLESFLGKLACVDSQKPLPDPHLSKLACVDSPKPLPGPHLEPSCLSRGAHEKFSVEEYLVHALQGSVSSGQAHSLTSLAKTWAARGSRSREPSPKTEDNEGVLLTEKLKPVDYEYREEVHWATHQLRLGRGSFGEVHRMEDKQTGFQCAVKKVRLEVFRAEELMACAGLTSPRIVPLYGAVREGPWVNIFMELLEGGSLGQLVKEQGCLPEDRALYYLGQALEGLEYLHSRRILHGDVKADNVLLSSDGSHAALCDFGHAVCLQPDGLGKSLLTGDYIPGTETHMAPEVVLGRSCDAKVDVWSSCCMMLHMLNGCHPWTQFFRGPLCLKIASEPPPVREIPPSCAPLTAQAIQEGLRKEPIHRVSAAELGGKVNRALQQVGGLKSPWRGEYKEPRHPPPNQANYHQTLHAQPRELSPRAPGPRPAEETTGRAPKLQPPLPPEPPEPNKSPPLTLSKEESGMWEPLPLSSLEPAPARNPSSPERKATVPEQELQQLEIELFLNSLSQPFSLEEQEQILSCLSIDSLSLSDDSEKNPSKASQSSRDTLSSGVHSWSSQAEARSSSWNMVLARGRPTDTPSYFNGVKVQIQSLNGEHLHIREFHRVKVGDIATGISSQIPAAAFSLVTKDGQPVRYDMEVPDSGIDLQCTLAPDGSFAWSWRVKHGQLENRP
# [9] = biological target: T9, 340 wild-type kinases (Homo sapiens, UniProt Q9HC98)
# T9 construct: purchased Reaction Biology Europe
# T9 sequence (Q9HC98 whole entry): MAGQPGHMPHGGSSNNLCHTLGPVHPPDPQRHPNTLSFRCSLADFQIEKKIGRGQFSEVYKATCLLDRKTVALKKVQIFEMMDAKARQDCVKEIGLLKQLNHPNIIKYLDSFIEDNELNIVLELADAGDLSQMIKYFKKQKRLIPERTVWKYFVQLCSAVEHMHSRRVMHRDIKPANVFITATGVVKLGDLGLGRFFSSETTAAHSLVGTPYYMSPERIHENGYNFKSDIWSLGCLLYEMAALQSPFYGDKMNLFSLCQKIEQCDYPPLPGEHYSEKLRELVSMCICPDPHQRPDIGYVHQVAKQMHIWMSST
# T1 sequence (P06239 whole entry): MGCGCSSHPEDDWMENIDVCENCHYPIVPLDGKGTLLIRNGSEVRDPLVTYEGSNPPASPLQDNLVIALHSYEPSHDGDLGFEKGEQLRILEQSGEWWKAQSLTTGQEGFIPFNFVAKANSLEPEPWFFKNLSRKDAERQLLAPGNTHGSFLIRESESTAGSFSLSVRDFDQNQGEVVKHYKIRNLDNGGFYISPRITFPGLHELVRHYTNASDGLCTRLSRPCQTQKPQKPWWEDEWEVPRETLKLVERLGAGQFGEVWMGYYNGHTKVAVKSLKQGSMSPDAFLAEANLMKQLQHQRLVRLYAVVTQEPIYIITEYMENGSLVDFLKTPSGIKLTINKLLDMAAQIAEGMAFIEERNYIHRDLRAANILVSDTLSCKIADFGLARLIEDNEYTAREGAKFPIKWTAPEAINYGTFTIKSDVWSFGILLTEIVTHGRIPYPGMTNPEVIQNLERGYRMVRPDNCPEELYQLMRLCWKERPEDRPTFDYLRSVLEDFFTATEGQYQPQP
structure (smiles),measurement,setting,value
CNC(=O)c1ccc2c(c1)C(=O)c1ccc(Nc3ccc(F)c(NC(=O)C4CC4)c3)cc1CC2 [Compound 2015],remaining activity at 0.2 µM,"[1]; 0.2 µM 2015, read-out: LCK residual activity",104%
same,remaining activity at 1 µM,"[1]; 1 µM 2015, read-out: LCK residual activity",95.6%
same,remaining activity at 0.2 µM,"[1]; LCK, 0.2 µM, read-out: residual activity",104%
same,remaining activity at 1 µM,"[1]; LCK, 1 µM, read-out: residual activity",95.6%
same,remaining activity at 0.2 µM,"[2]; 0.2 µM 2015, read-out: ARAF YDYD residual activity",98.8%
same,remaining activity at 1 µM,"[2]; 1 µM 2015, read-out: ARAF YDYD residual activity",106%
same,remaining activity at 0.2 µM,"[2]; ARAF YDYD, 0.2 µM, read-out: residual activity",98.8%
same,remaining activity at 1 µM,"[2]; ARAF YDYD, 1 µM, read-out: residual activity",106%
same,remaining activity at 0.2 µM,"[3]; 0.2 µM 2015, read-out: PIM1 residual activity",88.3%
same,remaining activity at 1 µM,"[3]; 1 µM 2015, read-out: PIM1 residual activity",91%
same,remaining activity at 0.2 µM,"[3]; PIM1, 0.2 µM, read-out: residual activity",88.3%
same,remaining activity at 1 µM,"[3]; PIM1, 1 µM, read-out: residual activity",91%
same,remaining activity at 0.2 µM,"[4]; 0.2 µM 2015, read-out: VEGFR3 residual activity",109%
same,remaining activity at 1 µM,"[4]; 1 µM 2015, read-out: VEGFR3 residual activity",94.2%
same,remaining activity at 0.2 µM,"[4]; VEGFR3, 0.2 µM, read-out: residual activity",109%
same,remaining activity at 1 µM,"[4]; VEGFR3, 1 µM, read-out: residual activity",94.2%
same,remaining activity at 0.2 µM,"[5]; 0.2 µM 2015, read-out: JNK1 residual activity",107%
same,remaining activity at 1 µM,"[5]; 1 µM 2015, read-out: JNK1 residual activity",94.2%
same,remaining activity at 0.2 µM,"[5]; JNK1, 0.2 µM, read-out: residual activity",107%
same,remaining activity at 1 µM,"[5]; JNK1, 1 µM, read-out: residual activity",94.2%
same,remaining activity at 0.2 µM,"[6]; 0.2 µM 2015, read-out: AMPKalpha1 residual activity",91.7%
same,remaining activity at 1 µM,"[6]; 1 µM 2015, read-out: AMPKalpha1 residual activity",101%
same,remaining activity at 0.2 µM,"[6]; AMPKalpha1, 0.2 µM, read-out: residual activity",91.8%
same,remaining activity at 1 µM,"[6]; AMPKalpha1, 1 µM, read-out: residual activity",101%
same,remaining activity at 1 µM,"[7]; 1 µM 2015, read-out: NEK1 residual activity",81.3%
same,remaining activity at 1 µM,"[7]; NEK1, 1 µM, read-out: residual activity",81.3%
same,remaining activity at 0.2 µM,[7]; read-out: NEK1 residual activity,86.5%
same,remaining activity at 0.2 µM,[7]; read-out: residual activity,86.5%
same,remaining activity at 0.2 µM,"[8]; 0.2 µM 2015, read-out: NIK residual activity",113%
same,remaining activity at 1 µM,"[8]; 1 µM 2015, read-out: NIK residual activity",90.5%
same,remaining activity at 0.2 µM,"[8]; NIK, 0.2 µM, read-out: residual activity",113%
same,remaining activity at 1 µM,"[8]; NIK, 1 µM, read-out: residual activity",90.5%
same,remaining activity at 0.2 µM,"[9]; 0.2 µM 2015, read-out: NEK6 residual activity",95.6%
same,remaining activity at 1 µM,"[9]; 1 µM 2015, read-out: NEK6 residual activity",99.3%
same,remaining activity at 0.2 µM,"[9]; NEK6, 0.2 µM, read-out: residual activity",95.6%
same,remaining activity at 1 µM,"[9]; NEK6, 1 µM, read-out: residual activity",99.3%

# From PMC11864979, “First-in-class ultralong-target-residence-time p38α inhibitors as a mitosis-targeted therapy for colorectal cancer” (Nature Cancer, 2025)
